pIC50: −log10 of the molar value. The source made the active and inactive calls. The calls are words filed in the database; no cut-off is given here.
Experiments:
[1] = molecular target: T1, Tyrosinase (Mus musculus) (UniProt P11344); experiment: Inhibition of tyrosinase in alpha-MSH-stimulated mouse B16F10 cells assessed as inhibition of L-DOPA oxidation at 40 to 120 uM after 72 hrs by spectrophotometry; format: cell-based; conditions: B16-F10
T1 sequence (whole entry): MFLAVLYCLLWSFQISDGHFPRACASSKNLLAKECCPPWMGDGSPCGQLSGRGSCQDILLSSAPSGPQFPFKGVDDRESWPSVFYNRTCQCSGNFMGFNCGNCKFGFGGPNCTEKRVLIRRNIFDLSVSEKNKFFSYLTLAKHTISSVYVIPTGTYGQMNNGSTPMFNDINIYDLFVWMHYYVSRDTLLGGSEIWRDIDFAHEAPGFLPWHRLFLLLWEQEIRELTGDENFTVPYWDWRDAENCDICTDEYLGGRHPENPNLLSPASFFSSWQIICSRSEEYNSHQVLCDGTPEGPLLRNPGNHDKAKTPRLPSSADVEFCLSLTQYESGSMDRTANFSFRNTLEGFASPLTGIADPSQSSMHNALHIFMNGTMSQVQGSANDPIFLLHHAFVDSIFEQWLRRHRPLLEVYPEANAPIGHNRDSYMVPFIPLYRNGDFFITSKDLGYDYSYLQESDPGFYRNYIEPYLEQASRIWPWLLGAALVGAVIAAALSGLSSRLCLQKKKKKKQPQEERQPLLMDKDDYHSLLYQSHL

[2] = tested on: B16-F10; experiment: Antimelanogenic activity in mouse B16F10 cells assessed as inhibition of alpha-MSH-induced melanin formation at 40 to 120 uM after 72 hrs by spectrophotometry; format: functional, cell-based
[3] = molecular target: T2, Tyrosinase (Agaricus bisporus) (UniProt O42713); experiment: (§1) Inhibition of mushroom tyrosinase hydroxylation activity using L-tyrosine as substrate after 30 mins by spectrophotometry
T2 sequence (whole entry): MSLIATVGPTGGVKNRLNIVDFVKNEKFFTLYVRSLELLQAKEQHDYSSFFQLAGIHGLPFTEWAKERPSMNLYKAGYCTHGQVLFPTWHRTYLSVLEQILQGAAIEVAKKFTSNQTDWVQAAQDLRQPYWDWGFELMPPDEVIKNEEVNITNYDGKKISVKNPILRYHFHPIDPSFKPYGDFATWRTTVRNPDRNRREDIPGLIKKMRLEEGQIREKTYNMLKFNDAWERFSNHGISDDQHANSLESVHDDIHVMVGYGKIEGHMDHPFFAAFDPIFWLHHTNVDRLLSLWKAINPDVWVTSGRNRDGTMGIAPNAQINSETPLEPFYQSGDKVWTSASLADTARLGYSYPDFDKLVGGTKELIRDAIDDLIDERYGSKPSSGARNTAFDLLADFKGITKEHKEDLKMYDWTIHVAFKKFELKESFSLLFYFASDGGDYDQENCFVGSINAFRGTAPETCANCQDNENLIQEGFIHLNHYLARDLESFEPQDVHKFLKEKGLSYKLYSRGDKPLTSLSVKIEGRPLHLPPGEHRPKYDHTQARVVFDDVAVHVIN

[4] = molecular target: T3, Tyrosinase (Agaricus bisporus, UniProt O42713); experiment: as §1
T3 sequence (O42713 whole entry): T2 sequence (whole entry)

[5] = molecular target: T2, Tyrosinase (Agaricus bisporus); experiment: Inhibition of mushroom tyrosinase hydroxylation activity using L-tyrosine as substrate at 120 uM after 30 mins by spectrophotometry
[6] = molecular target: T2, Tyrosinase (Agaricus bisporus); experiment: Non-competitive inhibition of mushroom tyrosinase assessed as inhibition of dopachrome formation by Lineweaver-Burk plot analysis
[7] = Cytotoxicity against mouse B16F10 cells assessed as cell viability at 40 to 120 uM after 72 hrs by MTT assay; format: cell-based, B16-F10

Row | SMILES | inhibition [1] | Activity [2] | inhibition [3] | pIC50 [4] | inhibition [5] [%] | inhibition [6] | viability at 72 h, up to 120 µM [7] [%]
1 | OC[C@H]1O[C@@H](Oc2ccc(O)cc2)[C@H](O)[C@@H](O)[C@@H]1O | Active | Active | – | – | – | – | –
2 | Oc1cc(O)cc(Oc2c(O)cc(O)c3c2Oc2c(O)cc(Oc4c(O)cc(Oc5c(O)cc(O)c6c5Oc5c(O)cc(O)cc5O6)cc4O)cc2O3)c1 [DIECKOL] | Active | Active | Dose-dependent effect | 4.70 | 89.3 | Active | > 95

From ChEMBL document CHEMBL1926566, “Molecular docking studies of a phlorotannin, dieckol isolated from Ecklonia cava with tyrosinase inhibitory activity” (Bioorg Med Chem, 2012)
